Measured values reported in patent US7291611B2, “Benzimidazolidinone derivatives as muscarinic agents” (ACADIA Pharmaceuticals Inc., priority 2001, dated 2007).
Blank lines part the entries; values can stand above or below the molecule they belong to.

Assays:
M1 muscarinic receptor = molecular target: T1, M1 muscarinic receptor (Homo sapiens, UniProt P11229); test: R-SAT functional assay, muscarinic M1 receptor; type: cell-based
T1 construct: expressed in transfected cells; host or cells: NIH-3T3 cells (ATCC CRL 1658)
T1 sequence (P11229 1-460): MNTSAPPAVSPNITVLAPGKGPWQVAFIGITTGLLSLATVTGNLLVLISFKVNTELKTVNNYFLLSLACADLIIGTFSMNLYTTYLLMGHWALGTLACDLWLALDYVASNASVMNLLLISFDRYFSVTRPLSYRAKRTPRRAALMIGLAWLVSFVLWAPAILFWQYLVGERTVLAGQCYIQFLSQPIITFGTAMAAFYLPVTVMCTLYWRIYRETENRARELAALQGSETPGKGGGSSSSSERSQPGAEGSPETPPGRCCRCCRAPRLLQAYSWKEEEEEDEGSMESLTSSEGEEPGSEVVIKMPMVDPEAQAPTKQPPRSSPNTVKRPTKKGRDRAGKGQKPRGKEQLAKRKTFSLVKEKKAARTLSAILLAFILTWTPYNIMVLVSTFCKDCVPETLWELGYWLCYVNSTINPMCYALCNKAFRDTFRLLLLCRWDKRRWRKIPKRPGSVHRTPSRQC
Protocol: (§1) The M1 and M4 muscarinic receptor subtypes were cloned substantially as described by Bonner et al., (1987) Science […] p. 527 and Bonner et al, (1988) Neuron 1, p. 403. R-SAT assays were carried out substantially as described in U.S. Pat. No. 5,707,798 and by Braüner-Osbome, H. B. and Brann, M. R. (1995), Eur. J. Pharmacol. 295:93-102. NIH-3T3 cells (available from the American Type Culture Collection as ATCC CRL 1658) were transfected with plasmid DNA encoding the m1 and m4 receptors and plasmid DNA encoding β-galactosidase. Transfected cells were grown in the presence of between 1 nM and 40 μM of the test compound for 5 days. On day 5, the cells were lysed using 0.5% nonidet-P and β-galactosidase expression was quantified using the chromogenic substrate o-nitrophenyl-p-D-galactoside (ONGP).
(§2) Data were normalized relative to the maximum response of the cells to the muscarinic agonist carbachol, and the following equation was fitted to the data: response=minimum+(maximum−minimum)/(1+([ligand]/EC50)) % Efficacy was defined as (maximum−minimum)/(maximum response of cells to carbachol). pEC50=−log (EC50). Where data gave a bell-shaped curve, “maximum” was defined as the highest observed response.

mice [1] = test: Amphetamine-induced hyperactivity in mice; type: in vivo; conditions: 3 and 10 mg/kg i.p., mice (FIG. 2)
Protocol: (§3) Male Non-Swiss Albino mice (Harlan Sprague-Dawley) were housed (4 mice/cage) in rooms with temperature and humidity controlled and water and food (Harlan Teklad) freely available. Mice were kept on a 12-hr light:dark cycle.
(§4) Plastic 20×20×30 cm activity cages were equipped with photocell beams (AccuScan Instruments). For spontaneous activity, 61KS19 (1, 3 and 10 mg/kg) was administered alone i.p. 30 min before the session. For hyperactivity experiments, mice were treated with 0.3 mg/kg dizocilpine, 3.0 mg/kg d-amphetamine or 3.0 mg/kg scopolamine i.p. 15 min before the session (15 min after 61KS19). Locomotor data were collected during a 15 min session without habituation in a lit room. Each dose combination was tested in a separate group of animals (n=8). Distance traveled (cm) was calculated and averaged followed by ANOVA and post-hoc Dunnett's t-test comparisons.

mice [2] = test: Catalepsy (rod test) in mice; type: in vivo; conditions: mice (FIG. 5)
Protocol: as §3
A custom-built 8-mm rod that is raised 3.5 cm from the lab benchtop was used. 61KS19 (10 mg/kg) or haloperidol (1 mg/kg) were administered i.p. 60 min before the start of the session. The forepaws of each animal is placed on the rod and the time to step down is measured. If the animal steps off immediately, another attempt is made until the animal stays on for more than 10 sec or 10 attempts have been made. A maximum of 2 min is allowed at which time the animal is taken away from the rod and returned to the homecage. Each dose or dose combination was tested in a separate group of animals (n=6). Averages and standard errors were calculated and compared using an ANOVA and post-hoc Dunnett's t-tests.

[3] = molecular target: T2, human dopamine D2 receptor (Homo sapiens, UniProt P14416); test: [3H]-Spiperone radioligand binding to D2 receptor membranes; conditions: tSA cell membranes, 150 pM [3H]-Spiperone; read-out: D2 [3H]Spiperone pIC50 (converted)
T2 construct: expressed in transfected cells; host or cells: tSA cells
T2 sequence (P14416 1-414 isoform P14416-2): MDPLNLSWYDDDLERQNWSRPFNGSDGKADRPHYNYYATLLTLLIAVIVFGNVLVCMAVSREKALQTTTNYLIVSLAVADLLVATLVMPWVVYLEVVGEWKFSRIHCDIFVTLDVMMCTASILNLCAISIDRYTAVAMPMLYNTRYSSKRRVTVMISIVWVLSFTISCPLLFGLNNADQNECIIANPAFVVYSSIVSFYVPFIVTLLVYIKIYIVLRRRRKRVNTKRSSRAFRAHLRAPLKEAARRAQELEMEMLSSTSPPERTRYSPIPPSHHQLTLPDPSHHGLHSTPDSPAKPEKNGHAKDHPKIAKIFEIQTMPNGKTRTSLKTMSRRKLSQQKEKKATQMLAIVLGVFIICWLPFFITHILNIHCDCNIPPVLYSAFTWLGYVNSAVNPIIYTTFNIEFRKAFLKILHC
Protocol: The D2 dopamine receptor subtype was cloned substantially as described by Stormann, Gdula, Weiner and Brann, 1990 [Mol Pharmacol 37, 1-6]. Cell membranes expressing the D2 receptor were prepared by transfecting tSA cells (Chahine, M., Bennet, P. B., George, A. L., Horn, R. (1994) Pfluegers Arch. 427, 136-142) with 10 μg plasmid DNA encoding the human dopamine D2 receptor and 40 μl Superfect (Qiagen). The cells were harvested 48 hours and transfection and membranes were prepared by homogenizing the cells using a Polytron harvester in 20 mM Hepes, 10 mM EDTA, pH 7.4. The homogenate was centrifuged for 30 minutes at 37,000 g. The pellet was homogenized again in 60 ml 20 mM Hepes, 5 mM EDTA. The homogenate was centrifuged for 30 minutes at 37,000 g. The supernatant was discarded. The pellet was homogenized again in 10 ml 20 mM Hepes, 1 mM EDTA. The resultant membranes were frozen at −80° C.
The membranes were combined with 150 pM [^3H]-Spiperone (Amersham-Pharmacia, 107 Ci/mmol) and ligand concentrations between 1 nM and 10 μM, or haloperidol concentrations between 0.1 nM and 1 μM in 460 μl 20 mM Hepes, 1 mM EDTA, 0.1% (w/v) bovine serum albumin. Nonspecific binding was defined as binding in the presence of 1 μM haloperidol. The membranes were incubated for 4 hours at 37° C., and then filtered onto Packard GFB Filterplates using a Packard harvester. The membranes were dried and 50 μl Microscint (Packard) was added to each well. The amount of bound radioligand was quantified using a Packard Topcount scintillation counter.
Data were normalized relative to the maximum inhibition of [^3H]-Spiperone binding by 1 μM haloperidol, and the following equation was fitted to the data: % inhibition=minimum+(maximum−minimum)/(1+([ligand]/[IC50])) % inhibition was defined as (maximum−minimum)/(maximum response of cells to haloperidol). pIC50=−log (IC50). NT=not tested. Results

M4 muscarinic receptor = molecular target: T3, M4 muscarinic receptor (Homo sapiens, UniProt P08173); test: R-SAT functional assay, muscarinic M4 receptor; type: cell-based
T3 construct: expressed in transfected cells; host or cells: NIH-3T3 cells (ATCC CRL 1658)
T3 sequence (P08173 1-479): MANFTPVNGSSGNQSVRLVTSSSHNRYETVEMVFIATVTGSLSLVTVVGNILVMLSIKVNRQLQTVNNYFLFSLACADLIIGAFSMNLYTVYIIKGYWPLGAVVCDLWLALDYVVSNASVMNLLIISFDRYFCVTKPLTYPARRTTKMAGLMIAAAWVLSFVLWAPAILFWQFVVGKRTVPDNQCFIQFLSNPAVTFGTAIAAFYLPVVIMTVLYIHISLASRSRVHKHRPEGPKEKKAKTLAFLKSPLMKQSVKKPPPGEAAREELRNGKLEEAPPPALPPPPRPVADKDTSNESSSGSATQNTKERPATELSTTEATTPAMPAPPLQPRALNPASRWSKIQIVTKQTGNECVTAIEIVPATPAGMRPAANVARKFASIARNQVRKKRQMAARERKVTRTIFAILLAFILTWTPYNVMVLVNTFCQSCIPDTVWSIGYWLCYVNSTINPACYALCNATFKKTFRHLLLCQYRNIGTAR
Protocol: as §1, §2

mice [4] = test: Spontaneous locomotor activity in mice; type: in vivo; conditions: 10 mg/kg i.p., mice (FIG. 1)
Protocol: as §3, §4

mice [5] = test: MK-801 (dizocilpine)-induced hyperactivity in mice; type: in vivo; conditions: 10 mg/kg i.p., mice (FIG. 4)
Protocol: as §3, §4

mice [6] = test: Scopolamine-induced hyperactivity in mice; type: in vivo; conditions: 1, 3 and 10 mg/kg i.p., mice (FIG. 3)
Protocol: as §3, §4

dopamine receptors = conditions: Shannon et al.; cited from earlier work
[7] = human, in vivo; cited from earlier work

binding efficacy for the M1 receptor subtype (M1 muscarinic receptor): high binding efficacy
Emax (M1 muscarinic receptor; NIH3T3, R-SAT, transfected NIH-3T3 cells, relative to maximum response to carbachol, read-out: M1 % Efficacy): 115%
EC50 (M1 muscarinic receptor; R-SAT, transfected NIH-3T3 cells, read-out: M1 pEC50 (converted)): 0.0251 µM
IC50 [3]: 0.794 µM
binding efficacy for the M4 receptor subtype (M4 muscarinic receptor): high binding efficacy
Emax (M4 muscarinic receptor; NIH3T3, R-SAT, transfected NIH-3T3 cells, relative to maximum response to carbachol, read-out: M4 % Efficacy): 141%
EC50 (M4 muscarinic receptor; R-SAT, transfected NIH-3T3 cells, read-out: M4 pEC50 (converted)): 0.0316 µM
SMILES: CCCCC1CCN(CCCn2c(=O)[nH]c3ccccc32)CC1 [Compound 61KS-19, 1-(3-[4-Butylpiperidino]propyl)-1,3-dihydrobenzimidazol-2-one]
amphetamine-induced hyperactivity (mice [1]): reduction of amphetamine-induced hyperactivity
induction of catalepsy (mice [2]; 10 mg/kg i.p.): failed to induce catalepsy
spontaneous locomotor activity (mice [4]): reduction of spontaneous locomotor activity
MK-801-induced hyperactivity (mice [5]): reduction of MK-801-induced hyperactivity
scopolamine-induced hyperactivity (mice [6]): reduction of scopolamine-induced hyperactivity

SMILES: CCCCCCOc1nsnc1C1=CCCN(C)C1 [Xanomeline]
affinity for dopamine receptors (dopamine receptors): little or no affinity for dopamine receptors

SMILES: O=C(CCCN1CCC(O)(c2ccc(Cl)cc2)CC1)c1ccc(F)cc1 [haloperidol, reference compound]
induction of catalepsy (mice [2]; haloperidol 1 mg/kg i.p.): unlike haloperidol

SMILES: Nc1c2c(nc3ccccc13)CCCC2 [tacrine]
patients with elevated liver transaminases [7]: about 30%
